Each block holds one compound with its values, some of them ahead of it. Activity calls are given as the source filed them. The calls are words filed in the database; no cut-off is given here.
Columns and labels:
[1] = biological target: T1, Lysine-specific histone demethylase 1A (Homo sapiens, UniProt O60341)
Description: Inhibition of recombinant full length LSD1 (unknown origin) transfected in Escherichia coli BL21 (DE) using H3K4me2 as substrate by flourescence based analysis

MGC-803 [2] = experiment: Induction of apoptosis in human MGC-803 cells assessed as viable cells at 5 uM measured after 24 hrs by Annexin V-FITC/PI staining based flow cytometry analysis (Rvb= 89%); format: functional; conditions: read-out: Activity
MAO-A = biological target: T2, MAO-A (Homo sapiens, UniProt P21397); experiment: Inhibition of N-terminal FLAG-tagged recombinant human MAO-A expressed in baculovirus-infected Sf9 cells at 5 uM using luciferin derivative as substrate pretreated for 15 mins followed by substrate addition and incubated for 60 mins by luciferase assay relative to control; conditions: probe luciferin derivative, time 75 min
T2 sequence (P21397 whole entry): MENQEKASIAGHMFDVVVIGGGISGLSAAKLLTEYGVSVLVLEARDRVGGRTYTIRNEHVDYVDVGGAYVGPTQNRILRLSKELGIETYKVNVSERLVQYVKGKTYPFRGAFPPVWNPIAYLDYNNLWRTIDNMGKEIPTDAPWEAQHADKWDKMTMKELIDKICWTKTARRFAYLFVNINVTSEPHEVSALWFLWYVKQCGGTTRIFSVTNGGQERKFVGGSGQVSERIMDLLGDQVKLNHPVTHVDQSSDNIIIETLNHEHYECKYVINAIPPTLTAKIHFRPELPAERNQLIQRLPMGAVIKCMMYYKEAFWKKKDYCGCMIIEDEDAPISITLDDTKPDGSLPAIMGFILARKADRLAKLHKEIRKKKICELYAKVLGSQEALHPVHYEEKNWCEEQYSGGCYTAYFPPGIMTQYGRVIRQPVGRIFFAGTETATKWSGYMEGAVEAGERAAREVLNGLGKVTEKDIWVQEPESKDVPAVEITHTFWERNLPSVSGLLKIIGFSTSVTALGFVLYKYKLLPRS

MAO-B = biological target: T3, MAO-B (Homo sapiens, UniProt P27338); experiment: Inhibition of N-terminal FLAG-tagged recombinant human MAO-B expressed in baculovirus-infected Sf9 cells at 5 uM using luciferin derivative as substrate pretreated for 15 mins followed by substrate addition and incubated for 60 mins by luciferase assay relative to control; conditions: probe luciferin derivative, time 75 min
T3 sequence (P27338 whole entry): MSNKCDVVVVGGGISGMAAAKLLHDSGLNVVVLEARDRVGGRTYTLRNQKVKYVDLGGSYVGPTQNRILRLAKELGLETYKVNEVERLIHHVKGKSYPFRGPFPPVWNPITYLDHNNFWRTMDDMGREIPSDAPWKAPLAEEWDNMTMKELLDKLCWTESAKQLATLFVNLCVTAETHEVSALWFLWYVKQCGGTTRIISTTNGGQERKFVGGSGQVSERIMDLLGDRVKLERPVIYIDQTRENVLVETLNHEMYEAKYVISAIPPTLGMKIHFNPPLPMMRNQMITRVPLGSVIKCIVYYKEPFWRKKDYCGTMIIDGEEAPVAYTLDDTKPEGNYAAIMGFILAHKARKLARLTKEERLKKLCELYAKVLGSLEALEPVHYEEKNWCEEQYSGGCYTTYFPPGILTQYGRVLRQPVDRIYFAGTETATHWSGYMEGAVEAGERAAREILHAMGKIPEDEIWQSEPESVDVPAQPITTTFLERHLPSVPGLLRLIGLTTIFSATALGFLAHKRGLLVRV

[3] = biological target: T1, Lysine-specific histone demethylase 1A; experiment: Inhibition of recombinant full length LSD1 (unknown origin) transfected in Escherichia coli BL21 (DE) at 5 uM using H3K4me2 as a substrate by flourescence based analysis relative to control
[4] = biological target: Cyclin-dependent kinase 1 (Homo sapiens) (UniProt P06493); experiment: Inhibition of CDK1 (unknown origin) at 5 uM using 5-FAM-QSPKKG-CONH2 as a substrate incubated for 60 mins in the presence of ATP by caliper analysis relative to control
Cyclin-dependent kinase 1 (Homo sapiens), sequence (P06493 whole entry, looked up, the tested form may be a part): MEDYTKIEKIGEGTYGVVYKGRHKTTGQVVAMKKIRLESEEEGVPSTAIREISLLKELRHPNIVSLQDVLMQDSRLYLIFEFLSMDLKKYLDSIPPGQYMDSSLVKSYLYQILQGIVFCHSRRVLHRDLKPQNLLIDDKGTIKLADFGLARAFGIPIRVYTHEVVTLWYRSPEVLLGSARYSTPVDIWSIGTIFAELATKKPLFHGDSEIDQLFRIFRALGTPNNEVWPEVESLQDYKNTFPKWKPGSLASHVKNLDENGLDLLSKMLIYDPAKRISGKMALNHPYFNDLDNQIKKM

[5] = biological target: Tyrosine-protein kinase BTK (Homo sapiens) (UniProt Q06187); experiment: Inhibition of N-terminal GST-fused human full length recombinant BTK expressed in baculovirus-infected Sf21 cells at 5 uM using 5-FAM-EAIYAAPFAKKK as a substrate incubated for 60 mins in the presence of ATP by caliper analysis relative to control
Tyrosine-protein kinase BTK (Homo sapiens), sequence (Q06187 whole entry, the tested form may be a part): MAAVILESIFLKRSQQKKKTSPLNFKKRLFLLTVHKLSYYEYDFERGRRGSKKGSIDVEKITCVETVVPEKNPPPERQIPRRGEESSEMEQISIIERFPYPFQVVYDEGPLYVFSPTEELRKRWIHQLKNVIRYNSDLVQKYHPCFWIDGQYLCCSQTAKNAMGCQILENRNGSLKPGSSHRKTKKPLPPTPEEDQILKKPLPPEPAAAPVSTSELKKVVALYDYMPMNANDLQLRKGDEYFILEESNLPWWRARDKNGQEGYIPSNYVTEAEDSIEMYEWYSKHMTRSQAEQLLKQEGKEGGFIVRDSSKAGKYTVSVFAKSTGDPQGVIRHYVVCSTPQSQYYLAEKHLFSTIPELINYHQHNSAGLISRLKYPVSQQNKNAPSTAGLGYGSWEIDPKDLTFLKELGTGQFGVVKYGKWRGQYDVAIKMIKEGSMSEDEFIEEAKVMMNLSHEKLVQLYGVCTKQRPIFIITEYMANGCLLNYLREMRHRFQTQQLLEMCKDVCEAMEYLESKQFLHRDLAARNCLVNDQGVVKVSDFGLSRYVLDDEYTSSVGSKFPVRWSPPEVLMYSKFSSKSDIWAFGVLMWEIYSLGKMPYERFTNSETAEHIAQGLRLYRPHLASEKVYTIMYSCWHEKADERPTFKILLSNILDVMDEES

[6] = biological target: Glycogen synthase kinase-3 beta (Homo sapiens) (UniProt P49841); experiment: Inhibition of GSK-3beta (unknown origin) at 5 uM relative to control
Glycogen synthase kinase-3 beta (Homo sapiens), sequence (P49841 whole entry, looked up): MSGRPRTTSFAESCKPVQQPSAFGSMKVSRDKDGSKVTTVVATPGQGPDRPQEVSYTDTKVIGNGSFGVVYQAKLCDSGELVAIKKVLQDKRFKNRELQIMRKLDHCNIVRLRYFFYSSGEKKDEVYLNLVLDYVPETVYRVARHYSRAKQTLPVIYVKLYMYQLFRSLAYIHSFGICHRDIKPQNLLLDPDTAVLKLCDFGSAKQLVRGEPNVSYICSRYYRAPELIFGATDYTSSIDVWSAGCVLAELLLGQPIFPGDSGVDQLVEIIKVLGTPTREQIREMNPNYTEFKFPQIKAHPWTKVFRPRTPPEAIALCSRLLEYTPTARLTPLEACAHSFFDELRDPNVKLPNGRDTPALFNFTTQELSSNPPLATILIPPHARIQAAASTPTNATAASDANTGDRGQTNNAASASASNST

[7] = biological target: Epidermal growth factor receptor (Homo sapiens, UniProt P00533); experiment: Inhibition of EGFR (unknown origin)
Epidermal growth factor receptor, sequence (P00533 whole entry): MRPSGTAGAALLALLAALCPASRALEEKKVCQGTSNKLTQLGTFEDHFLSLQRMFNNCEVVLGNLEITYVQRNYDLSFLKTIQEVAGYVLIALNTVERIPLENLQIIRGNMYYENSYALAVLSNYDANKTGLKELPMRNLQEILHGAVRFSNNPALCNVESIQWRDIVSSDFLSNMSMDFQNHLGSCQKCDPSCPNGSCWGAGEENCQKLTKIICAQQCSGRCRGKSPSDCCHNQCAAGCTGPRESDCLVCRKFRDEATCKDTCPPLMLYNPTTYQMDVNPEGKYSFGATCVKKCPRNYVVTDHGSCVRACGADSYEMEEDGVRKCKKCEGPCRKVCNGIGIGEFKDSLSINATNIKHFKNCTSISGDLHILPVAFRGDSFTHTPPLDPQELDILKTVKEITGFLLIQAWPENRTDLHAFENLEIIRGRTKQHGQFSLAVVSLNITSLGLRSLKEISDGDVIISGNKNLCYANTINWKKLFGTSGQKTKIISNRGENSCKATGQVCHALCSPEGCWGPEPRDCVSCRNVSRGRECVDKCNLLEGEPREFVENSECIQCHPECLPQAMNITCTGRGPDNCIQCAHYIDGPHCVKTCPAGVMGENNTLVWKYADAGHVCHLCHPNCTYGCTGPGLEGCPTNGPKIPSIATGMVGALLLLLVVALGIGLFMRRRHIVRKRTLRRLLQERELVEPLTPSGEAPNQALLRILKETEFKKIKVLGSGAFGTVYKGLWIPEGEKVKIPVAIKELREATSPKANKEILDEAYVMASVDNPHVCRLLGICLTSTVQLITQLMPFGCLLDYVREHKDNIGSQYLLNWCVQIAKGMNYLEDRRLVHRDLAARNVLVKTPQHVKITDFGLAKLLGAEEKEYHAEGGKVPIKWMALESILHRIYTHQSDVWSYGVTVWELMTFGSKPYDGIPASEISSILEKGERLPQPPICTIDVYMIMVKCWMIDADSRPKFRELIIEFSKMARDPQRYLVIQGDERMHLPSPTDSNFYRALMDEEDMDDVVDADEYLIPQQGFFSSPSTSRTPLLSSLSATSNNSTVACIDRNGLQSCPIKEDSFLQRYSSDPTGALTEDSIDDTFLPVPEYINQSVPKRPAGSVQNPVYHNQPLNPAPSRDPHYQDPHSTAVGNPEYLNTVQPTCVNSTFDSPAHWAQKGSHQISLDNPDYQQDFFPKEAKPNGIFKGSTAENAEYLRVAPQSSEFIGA

Homo sapiens = species: Homo sapiens; experiment: Selectivity index, ratio of IC50 for inhibition of EGFR (unknown origin) to IC50 for inhibition of recombinant human full length LSD1 transfected in Escherichia coli BL21 (DE)
[8] = biological target: T1, Lysine-specific histone demethylase 1A; experiment: Inhibition of LSD1 in human MGC-803 cells assessed as increase in H3K4me2 expression measured after 24 hrs by western blot analysis; format: cell-based; conditions: dose 5-20 µM
MGC-803 [9] = experiment: Inhibition of clonogenicity in human MGC-803 cells assessed as reduction in colony formation measured after 10 days by crystal violet staining based analysis; format: functional, cell-based; conditions: dose 1-20 µM, time 10.0 day
MGC-803 [10] = experiment: Inhibition of clonogenicity in human MGC-803 cells assessed as reduction in colony formation at 10 uM measured after 10 days by crystal violet staining based analysis relative to control; format: functional; conditions: MGC-803, 240 h, time 10 day
MGC-803 [11] = experiment: Inhibition of cell migration in human MGC-803 cells at 0.5 uM measured after 48 hrs by transwell assay relative to control; format: functional
MGC-803 [12] = experiment: Inhibition of epithelial mesenchymal transition process in human MGC-803 cells assessed as increase in E-cadherin expression at 0.1 to 0.5 uM measured after 24 hrs western blot analysis; format: functional, cell-based; conditions: dose 0.1-0.5 µM
MGC-803 [13] = experiment: Inhibition of epithelial mesenchymal transition process in human MGC-803 cells assessed as decrease in N-cadherin expression at 0.1 to 0.5 uM measured after 24 hrs western blot analysis; format: functional, cell-based; conditions: dose 0.1-0.5 µM
MGC-803 [14] = experiment: Induction of apoptosis in human MGC-803 cells assessed as early apoptotic cells at 5 uM measured after 24 hrs by Annexin V-FITC/PI staining based flow cytometry analysis (Rvb= 6.1%); format: functional
MGC-803 [15] = experiment: Induction of apoptosis in human MGC-803 cells assessed as late apoptotic cells at 5 uM measured after 24 hrs by Annexin V-FITC/PI staining based flow cytometry analysis (Rvb= 3.9%); format: functional
MGC-803 [16] = experiment: Induction of apoptosis in human MGC-803 cells assessed as necrotic cells at 5 uM measured after 24 hrs by Annexin V-FITC/PI staining based flow cytometry analysis (Rvb= 1%); format: functional
MGC-803 [17] = experiment: Induction of apoptosis in human MGC-803 cells assessed as live cells at 10 uM measured after 24 hrs by Annexin V-FITC/PI staining based flow cytometry analysis (Rvb= 89%); format: functional
MGC-803 [18] = experiment: Induction of apoptosis in human MGC-803 cells assessed as early apoptotic cells at 10 uM measured after 24 hrs by Annexin V-FITC/PI staining based flow cytometry analysis (Rvb= 6.1%); format: functional
MGC-803 [19] = experiment: Induction of apoptosis in human MGC-803 cells assessed as late apoptotic cells at 10 uM measured after 24 hrs by Annexin V-FITC/PI staining based flow cytometry analysis (Rvb= 3.9%); format: functional
MGC-803 [20] = experiment: Induction of apoptosis in human MGC-803 cells assessed as necrotic cells at 10 uM measured after 24 hrs by Annexin V-FITC/PI staining based flow cytometry analysis (Rvb= 1%); format: functional
MGC-803 [21] = experiment: Induction of apoptosis in human MGC-803 cells assessed as live cells at 20 uM measured after 24 hrs by Annexin V-FITC/PI staining based flow cytometry analysis (Rvb= 89%); format: functional
MGC-803 [22] = experiment: Induction of apoptosis in human MGC-803 cells assessed as early apoptotic cells at 20 uM measured after 24 hrs by Annexin V-FITC/PI staining based flow cytometry analysis (Rvb= 6.1%); format: functional
MGC-803 [23] = experiment: Induction of apoptosis in human MGC-803 cells assessed as late apoptotic cells at 20 uM measured after 24 hrs by Annexin V-FITC/PI staining based flow cytometry analysis (Rvb= 3.9%); format: functional
MGC-803 [24] = experiment: Induction of apoptosis in human MGC-803 cells assessed as necrotic cells at 20 uM measured after 24 hrs by Annexin V-FITC/PI staining based flow cytometry analysis (Rvb= 1%); format: functional
[25] = Aqueous solubility of the compound in water; format: physicochemical
MGC-803 [26] = experiment: Antitumor activity against human MGC-803 cells xenografted in nude mouse assessed as inhibition of tumor growth at 40 to 80 mg/kg/day, iv administered for 21 days; format: functional, organism-based; conditions: dose 40-80 mg/kg/day, time 21.0 day
MGC-803 [27] = experiment: Antitumor activity against human MGC-803 cells xenografted in nude mouse assessed as reduction in tumor weight at 40 mg/kg/day, iv administered for 21 days relative to control; format: functional; conditions: MGC-803, iv, 504 h, time 21 day
MGC-803 [28] = experiment: Antitumor activity against human MGC-803 cells xenografted in nude mouse assessed as reduction in tumor weight at 80 mg/kg/day, iv administered for 21 days relative to control; format: functional; conditions: MGC-803, iv, 504 h, time 21 day
[29] = Toxicity in nude mouse xenografted with human MGC-803 cells assessed as body weight loss at 40 to 80 mg/kg/day, iv administered for 21 days; format: organism-based; conditions: in vivo, 504 h, dose 40-80 mg/kg/day, time 21 day
MGC-803 [30] = experiment: Antitumor activity against human MGC-803 cells xenografted in nude mouse assessed as low cell density in tumor tissue at 40 to 80 mg/kg/day, iv measured after 21 days by H and E staining based histopathological analysis; format: functional, organism-based; conditions: dose 40-80 mg/kg/day, time 21.0 day
MGC-803 [31] = experiment: Antitumor activity against human MGC-803 cells xenografted in nude mouse assessed as chromatin condensation in tumor tissue at 40 to 80 mg/kg/day, iv measured after 21 days by H and E staining based histopathological analysis; format: functional, organism-based; conditions: dose 40-80 mg/kg/day, time 21.0 day
MGC-803 [32] = experiment: Antitumor activity against human MGC-803 cells xenografted in nude mouse assessed as pyknosis in tumor tissue at 40 to 80 mg/kg/day, iv measured after 21 days by H and E staining based histopathological analysis; format: functional, organism-based; conditions: dose 40-80 mg/kg/day, time 21.0 day
[33] = Ocular toxicity in nude mouse xenografted with human MGC-803 cells at 40 to 80 mg/kg/day, iv administered for 21 days; format: organism-based; conditions: in vivo, 504 h, dose 40-80 mg/kg/day, time 21 day
MCF7 = experiment: cells; conditions: Homo sapiens, MCF7, 72 h
Description: Antiproliferative activity against human MCF7 cells assessed as cell growth inhibition measured after 72 hrs by MTT assay

NCI-H1650 = experiment: cells; conditions: Homo sapiens, NCI-H1650, 72 h
Description: Antiproliferative activity against human NCI-H1650 cells assessed as cell growth inhibition measured after 72 hrs by MTT assay

NCI-H1975 = experiment: cells; conditions: Homo sapiens, NCI-H1975, 72 h
Description: Antiproliferative activity against human NCI-H1975 cells assessed as cell growth inhibition measured after 72 hrs by MTT assay

NCI-H460 = experiment: cells; conditions: Homo sapiens, NCI-H460, 72 h
Description: Antiproliferative activity against human NCI-H460 cells assessed as cell growth inhibition measured after 72 hrs by MTT assay

PC-3 = experiment: cells; conditions: Homo sapiens, PC-3, 72 h
Description: Antiproliferative activity against human PC-3 cells assessed as cell growth inhibition measured after 72 hrs by MTT assay

ECa-109 cell line = experiment: cells; conditions: Homo sapiens, ECa-109, 72 h
Description: Antiproliferative activity against human EC109 cells assessed as cell growth inhibition measured after 72 hrs by MTT assay

HepG2 = experiment: cells; conditions: Homo sapiens, HepG2, 72 h
Description: Antiproliferative activity against human HepG2 cells assessed as cell growth inhibition measured after 72 hrs by MTT assay

MGC-803 [34] = experiment: cells; conditions: Homo sapiens, MGC-803, 72 h
Description: Antiproliferative activity against human MGC-803 cells assessed as cell growth inhibition measured after 72 hrs by MTT assay

BGC-823 = experiment: cells; conditions: Homo sapiens, BGC-823, 72 h
Description: Antiproliferative activity against human BGC-823 cells assessed as cell growth inhibition measured after 72 hrs by MTT assay

GES1 = experiment: cells; conditions: Homo sapiens, GES1, 72 h
Description: Cytotoxicity against human GES1 cells assessed as cell growth inhibition measured after 72 hrs by MTT assay

Structure (SMILES): COCCOc1cc2ncnc(Nc3ccc(F)cc3)c2cc1OCCOC
IC50 [1]: > 50 µM

Structure (SMILES): COCCOc1cc2ncnc(Oc3ccc(OC)cc3)c2cc1OCCOC
IC50 [1]: > 50 µM

Structure (SMILES): C#Cc1cccc(Nc2ncnc3ccc(Br)cc23)c1
IC50 [1]: > 50 µM

The next lines start with results.

IC50 [1]: > 50 µM
Structure (SMILES): COCCOc1cc2ncnc(Sc3nnnn3-c3ccccc3)c2cc1OCCOC

inhibition at 1.25 h, 5 µM (MAO-A): 15%
inhibition at 1.25 h, 5 µM (MAO-B): 18%
inhibition [3]: 97%
inhibition [4]: < 2%
inhibition [5]: < 2%
inhibition [6]: 13%
IC50 [7]: 5.21 µM
Ratio IC50 (Homo sapiens): 7.5
inhibition [8]: Dose-Dependent Effect
solubility [25]: > 100 mg/mL
IC50 [1]: 0.69 µM
IC50 (MCF7): 38.5 µM
IC50 (NCI-H1650): 17.2 µM
IC50 (NCI-H1975): 26.6 µM
IC50 (NCI-H460): 28.2 µM
IC50 (PC-3): > 50 µM
IC50 (ECa-109 cell line): 9.65 µM
IC50 (HepG2): 16.2 µM
IC50 (MGC-803 [34]): 9.21 µM
IC50 (BGC-823): 15.3 µM
IC50 (GES1): > 50 µM
Structure (SMILES): COCCOc1cc2ncnc(Sc3nc[nH]n3)c2cc1OCCOC
viability at 5 µM (MGC-803 [2]): 68.4%
inhibition (MGC-803 [9]): Dose-Dependent Effect
inhibition at 10 µM (MGC-803 [10]): > 90%
inhibition at 0.5 µM (MGC-803 [11]): 70%
inhibition (MGC-803 [12]): Active
inhibition (MGC-803 [13]): Active
Activity (MGC-803 [14]): 10.3%
Activity (MGC-803 [15]): 20.9%
Activity (MGC-803 [16]): 0.4%
Activity (MGC-803 [17]): 55.1%
Activity (MGC-803 [18]): 13.3%
Activity (MGC-803 [19]): 29.3%
Activity (MGC-803 [20]): 2.2%
Activity (MGC-803 [21]): 20.6%
Activity (MGC-803 [22]): 31.2%
Activity (MGC-803 [23]): 45.8%
Activity (MGC-803 [24]): 2.3%
Activity (MGC-803 [26]): Active
inhibition in vivo at 40 mg/kg/day (MGC-803 [27]): 81.6%
inhibition in vivo at 80 mg/kg/day (MGC-803 [28]): 96.1%
Activity [29]: Non-Toxic
Activity (MGC-803 [30]): Active
Activity (MGC-803 [31]): Active
Activity (MGC-803 [32]): Active
Activity [33]: Non-Toxic

— ChEMBL document CHEMBL4831513, “Discovery of quinazoline derivatives as a novel class of potent and in vivo efficacious LSD1 inhibitors by drug repurposing” (Eur J Med Chem, 2021)
